Reference: patent US12600709B2, “Nonpeptide somatostatin type 5 receptor agonists and uses thereof” (Crinetics Pharmaceuticals, Inc., priority 2019, dated 2026)
pEC50: −log10 of the molar value. Like-named read-outs stand apart in the source and are kept apart here.

Key:
[1] = target: T1, human somatostatin receptor subtype 5 (Homo sapiens, UniProt P35346); assay: cAMP assay for SST5R (inhibition of cAMP in CHO-K1 cells); format: cell-based; conditions: for pEC50: inhibition of cAMP via human SST5 receptor, read-out: SST5 potency; for Fold selectivity for SST5 vs SST2: class symbols, SST5 receptor over SST2 receptor
T1 construct: expressed in transfected cells
T1 sequence (P35346 whole entry): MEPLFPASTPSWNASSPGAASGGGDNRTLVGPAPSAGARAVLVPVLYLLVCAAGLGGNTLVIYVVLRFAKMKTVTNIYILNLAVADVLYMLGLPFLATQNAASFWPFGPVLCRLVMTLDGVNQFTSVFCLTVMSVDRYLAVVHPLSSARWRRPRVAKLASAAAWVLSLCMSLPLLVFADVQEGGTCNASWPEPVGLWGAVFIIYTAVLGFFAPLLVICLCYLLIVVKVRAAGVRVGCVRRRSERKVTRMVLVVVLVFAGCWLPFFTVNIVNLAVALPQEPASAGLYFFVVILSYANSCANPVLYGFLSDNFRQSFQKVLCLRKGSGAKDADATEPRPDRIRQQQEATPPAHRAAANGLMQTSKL
In short: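 CHO-K1 cells stably expressing human SSTR5 were treated 20 min at 37 °C with compounds plus 1.6 μM NKH477 in HBSS, 0.5 mM HEPES pH 7.4, 0.1% BSA, 0.2 mM IBMX. Lysate cAMP measured by HTRF against a standard curve; EC50 from cAMP-versus-concentration plots.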

[2] = target: T2, human somatostatin receptor subtype 2 (Homo sapiens, UniProt P30874); assay: cAMP assay for SST2R (inhibition of cAMP in CHO-K1 cells); format: cell-based; conditions: Table B; inhibition of cAMP via human SST2 receptor; read-out: SST2 potency
T2 construct: expressed in transfected cells
T2 sequence (P30874 whole entry): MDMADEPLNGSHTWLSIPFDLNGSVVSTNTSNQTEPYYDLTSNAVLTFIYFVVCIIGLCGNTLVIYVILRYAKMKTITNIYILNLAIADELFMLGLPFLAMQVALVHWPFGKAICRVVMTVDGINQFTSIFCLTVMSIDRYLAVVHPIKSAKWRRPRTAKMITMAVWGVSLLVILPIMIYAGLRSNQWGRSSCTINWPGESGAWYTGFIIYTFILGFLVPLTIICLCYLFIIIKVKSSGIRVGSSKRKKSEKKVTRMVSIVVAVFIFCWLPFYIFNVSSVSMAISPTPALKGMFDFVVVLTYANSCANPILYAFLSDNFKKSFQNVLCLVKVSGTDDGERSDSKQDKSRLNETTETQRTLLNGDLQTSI
In short: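 CHO-K1 cells stably expressing human SSTR2, plated 4 days prior, treated 20 min at 37° C with 1.6 μM NKH477 plus compound dilutions in HBSS/HEPES pH 7.4/0.1% BSA/0.2 mM IBMX. Lysate cAMP measured by HTRF against standard curve; EC50 from concentration-response.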

Compound | pEC50 ([1]; Table A) | Fold selectivity for SST5 vs SST2 ([1]; Table B) | pEC50 ([1]; Table B) | pEC50 [2]
Cc1cc(C)cc(-c2cncc(C(=O)NC3CCC(F)(F)CC3)c2N2CC[C@](C)(N)C2)c1 [1-12, 4-[(3S)-3-amino-3-methylpyrrolidin-1-yl]-N-(4,4-difluorocyclohexyl)-5-(3,5-dimethylphenyl)pyridine-3-carboxamide] | > 8.00 | +++ (+++=>500) | > 8.00 | 6.00 to 7.00
COc1cc(-c2c(C)ncc(C(=O)NC3CCCCC3)c2N2CC[C@](C)(N)C2)ccn1 [1-255, 4-[(3S)-3-amino-3-methylpyrrolidin-1-yl]-N-cyclohexyl-2′-methoxy-2-methyl-[3,4′-bipyridine]-5-carboxamide] | > 8.00 | +++ (+++=>500) | > 8.00 | < 6.00
4-[(3S)-3-amino-3-methylpyrrolidin-1-yl]-5-(3-cyano-5-methoxyphenyl)-N-[(1S)-1-cyclopropylethyl]-6-methylpyridine-3-carboxamide [1-280] | > 8.00 | +++ (+++=>500) | > 8.00 | 6.00 to 7.00
Cc1cc(C)cc(NC(=O)c2cncc(-c3cc(C)cc(C)c3)c2N2CC[C@@H](N)C2)c1 (single isomer, unassigned) [1-2] | 7.00 to 8.00 |  | 7.00 to 8.00 | > 8.00
CCC(CC)NC(=O)c1cnc(C#N)c(-c2ccnc(OC)c2)c1N1CC[C@](C)(N)C1 [1-253, 4-[(3S)-3-amino-3-methylpyrrolidin-1-yl]-2-cyano-2′-methoxy-N-(pentan-3-yl)-[3,4′-bipyridine]-5-carboxamide] | > 8.00 | +++ (+++=>500) | > 8.00 | 6.00 to 7.00
C[C@H](NC(=O)c1cnc(OCC2COC2)c(-c2cc(F)cc(F)c2)c1N1CC[C@](C)(N)C1)C1CC1 [1-266, 4-[(3S)-3-amino-3-methylpyrrolidin-1-yl]-N-[(1S)-1-cyclopropylethyl]-5-(3,5-difluorophenyl)-6-[(oxetan-3-yl)methoxy]pyridine-3-carboxamide] | > 8.00 | +++ (+++=>500) | > 8.00 | < 6.00
C[C@H](NC(=O)c1cnc(C(F)(F)F)c(-c2cc(F)cc(Cl)c2)c1N1CC[C@](C)(N)C1)C1CC1 [1-195, 4-[(3S)-3-amino-3-methylpyrrolidin-1-yl]-5-(3-chloro-5-fluorophenyl)-N-[(1S)-1-cyclopropylethyl]-6-(trifluoromethyl)pyridine-3-carboxamide] | > 8.00 | ++ (++=100 to 499) | > 8.00 | 7.00 to 8.00
COc1cc(C#N)cc(-c2c(C)ncc(C(=O)N[C@@H](C)C(F)(F)F)c2N2CC[C@](C)(N)C2)c1 [1-275, 4-[(3S)-3-amino-3-methylpyrrolidin-1-yl]-5-(3-cyano-5-methoxyphenyl)-6-methyl-N-[(2S)-1,1,1-trifluoropropan-2-yl]pyridine-3-carboxamide] | > 8.00 | +++ (+++=>500) | > 8.00 | 6.00 to 7.00
CCOc1cc(-c2c(C(F)(F)F)ncc(C(=O)N[C@@H](C)C3CC3)c2N2CC[C@](C)(N)C2)ccn1 [1-206, 4-[(3S)-3-amino-3-methylpyrrolidin-1-yl]-N-[(1S)-1-cyclopropylethyl]-2′-ethoxy-2-(trifluoromethyl)-[3,4′-bipyridine]-5-carboxamide] | > 8.00 | +++ (+++=>500) | > 8.00 | < 6.00
Cc1ncc(C(=O)N[C@@H](C)C2CC2)c(N2CC[C@](C)(N)C2)c1-c1cncc(Cl)c1 [1-158, 4-[(3S)-3-amino-3-methylpyrrolidin-1-yl]-5′-chloro-N-[(1S)-1-cyclopropylethyl]-2-methyl-[3,3′-bipyridine]-5-carboxamide] | > 8.00 | +++ (+++=>500) | > 8.00 | < 6.00
COc1ncc(C(=O)NC23CC(F)(C2)C3)c(N2CC[C@H](N)C2)c1-c1cc(F)cc(F)c1 [1-196, 4-[(3S)-3-aminopyrrolidin-1-yl]-5-(3,5-difluorophenyl)-N-{3-fluorobicyclo[1.1.1]pentan-1-yl}-6-methoxypyridine-3-carboxamide] | > 8.00 | +++ (+++=>500) | > 8.00 | < 6.00
CCCCNC(=O)c1cnc(C#N)c(-c2ccnc(C(F)(F)F)c2)c1N1CC[C@](C)(N)C1 [1-251, 4-[(3S)-3-amino-3-methylpyrrolidin-1-yl]-N-butyl-2-cyano-2′-(trifluoromethyl)-[3,4′-bipyridine]-5-carboxamide] | > 8.00 | +++ (+++=>500) | > 8.00 | < 6.00
COc1ncc(C(=O)N[C@@H](C)C2CC2)c(N2CC[C@](C)(N)C2)c1-c1cccc(OC(F)(F)F)c1 [1-154, 4-[(3S)-3-amino-3-methylpyrrolidin-1-yl]-N-[(1S)-1-cyclopropylethyl]-6-methoxy-5-[3-(trifluoromethoxy)phenyl]pyridine-3-carboxamide] | > 8.00 | +++ (+++=>500) | > 8.00 | < 6.00
C[C@H](NC(=O)c1cnc(C#N)c(-c2cc(F)cc(F)c2)c1N1CC[C@H](N)C1)C(F)(F)F [1-71, 4-[(3S)-3-aminopyrrolidin-1-yl]-6-cyano-5-(3,5-difluorophenyl)-N-[(2S)-1,1,1-trifluoropropan-2-yl]pyridine-3-carboxamide] | > 8.00 | +++ (+++=>500) | > 8.00 | 6.00 to 7.00
CC1(NC(=O)c2cncc(-c3cc(F)cc(F)c3)c2N2CC[C@](C)(N)C2)CCC1 [1-34, 4-[(3S)-3-amino-3-methylpyrrolidin-1-yl]-5-(3,5-difluorophenyl)-N-(1-methylcyclobutyl)pyridine-3-carboxamide] | > 8.00 | ++ (++=100 to 499) | > 8.00 | 6.00 to 7.00
C[C@H](NC(=O)c1cnc(C#N)c(-c2ccnc(C(F)(F)F)c2)c1N1CC[C@](C)(N)C1)C1CC1 [1-129, 4-[(3S)-3-amino-3-methylpyrrolidin-1-yl]-2-cyano-N-[(1S)-1-cyclopropylethyl]-2′-(trifluoromethyl)-[3,4′-bipyridine]-5-carboxamide] | > 8.00 | +++ (+++=>500) | > 8.00 | 6.00 to 7.00
CC(N)C1CN(c2c(C(=O)NC34CC(C3)C4)cnc(C#N)c2-c2cc(F)cc(F)c2)C1 (stereo not shown) [1-100, 4-[3-(1-aminoethyl)azetidin-1-yl]-N-{bicyclo[1.1.1]pentan-1-yl}-6-cyano-5-(3,5-difluorophenyl)pyridine-3-carboxamide] | > 8.00 | +++ (+++=>500) | > 8.00 | < 6.00
C[C@]1(N)CCN(c2c(C(=O)N3C4CC5CC(C4)CC3C5)cncc2-c2nc3cccc(Cl)c3[nH]2)C1 [2-45, (3S)-1-(3-{2-azatricyclo[3.3.1.1^3,7]decane-2-carbonyl}-5-(7-chloro-1H-1,3-benzodiazol-2-yl)pyridin-4-yl)-3-methylpyrrolidin-3-amine] | > 8.00 | ++ (++=100 to 499) | > 8.00 | 6.00 to 7.00
CC(C)CNC(=O)c1cnc(C#N)c(-c2cc(F)cc(F)c2)c1N1CC[C@](C)(N)C1 [1-85, 4-[(3S)-3-amino-3-methylpyrrolidin-1-yl]-6-cyano-5-(3,5-difluorophenyl)-N-(2-methylpropyl)pyridine-3-carboxamide] | > 8.00 | +++ (+++=>500) | > 8.00 | 6.00 to 7.00
C[C@H](NC(=O)c1cnc(C#N)c(-c2cc(F)cc(F)c2)c1N1CC[C@](C)(N)C1)c1ccccn1 [1-103, 4-[(3S)-3-amino-3-methylpyrrolidin-1-yl]-6-cyano-5-(3,5-difluorophenyl)-N-[(1S)-1-(pyridin-2-yl)ethyl]pyridine-3-carboxamide] | > 8.00 | +++ (+++=>500) | > 8.00 | < 6.00
C[C@]1(N)CCN(c2c(C(=O)NC3CCC(F)(F)CC3)cncc2-c2cccc(C#N)c2)C1 [1-10, 4-[(3S)-3-amino-3-methylpyrrolidin-1-yl]-5-(3-cyanophenyl)-N-(4,4-difluorocyclohexyl)pyridine-3-carboxamide] | 7.00 to 8.00 | ++ (++=100 to 499) | 7.00 to 8.00 | < 6.00
C[C@]1(N)CCN(c2c(C(=O)NC3CC(F)(F)C3)cncc2-c2cc(F)cc(Cl)c2)C1 [1-35, 4-[(3S)-3-amino-3-methylpyrrolidin-1-yl]-5-(3-chloro-5-fluorophenyl)-N-(3,3-difluorocyclobutyl)pyridine-3-carboxamide] | > 8.00 | ++ (++=100 to 499) | > 8.00 | 6.00 to 7.00
COc1cc(-c2c(C)ncc(C(=O)NC3CCCC3)c2N2CC[C@](C)(N)C2)ccn1 [1-256, 4-[(3S)-3-amino-3-methylpyrrolidin-1-yl]-N-cyclopentyl-2′-methoxy-2-methyl-[3,4′-bipyridine]-5-carboxamide] | > 8.00 | +++ (+++=>500) | > 8.00 | < 6.00
